Measured values as given in patent EP4813463A2, “TYK2 INHIBITORS AND COMPOSITIONS AND METHODS THEREOF” (Lynk Pharmaceuticals Co. Ltd., priority 2023, dated 2024).

target: T1, TYK2-JH2 domain (Homo sapiens, UniProt P29597); experiment: Binding activity test for JH2 domain of TYK2 (Tb-antibody/tracer FRET); conditions: JH2 domain enzyme; 60 min at 25°C, then 4°C overnight; read-out: TYK2 JH2 Binding IC50
T1 construct: JAK1-JH2 domain or TYK2-JH2 domain enzyme in assay buffer
Experimental: Binding Activity test for JH2 domain of JAK1 and TYK2 […] Add 8μL/well in echo source plate, echo will add 75nL/well with 3-fold serial dilution for 11 points in assay plate. 75nL DMSO for high control and low control. […] For low control, add 5μL/well assay buffer. And then spin down at 1000rpm and centrifuge for 30 seconds. After enzyme system prepared, add 5μL of Tb-antibody solution into each well of assay plate. Spin down at 1000 rpm and centrifuge for 30sec. After Tb-antibody added, also add 5μL of tracer into the assay plate. Spin down at 1000rpm and centrifuge for 30sec. Incubate for […] at 25°C firstly and then continue to incubate the plate at 4°C overnight. Read by envision in FRET mode. The Luminescence value was recorded by a multi-label reader Envision (PerkinElmer). […] Table 2. IC50 on JH2 domain activity (nM)

T1 sequence (P29597 589-875 limits assumed): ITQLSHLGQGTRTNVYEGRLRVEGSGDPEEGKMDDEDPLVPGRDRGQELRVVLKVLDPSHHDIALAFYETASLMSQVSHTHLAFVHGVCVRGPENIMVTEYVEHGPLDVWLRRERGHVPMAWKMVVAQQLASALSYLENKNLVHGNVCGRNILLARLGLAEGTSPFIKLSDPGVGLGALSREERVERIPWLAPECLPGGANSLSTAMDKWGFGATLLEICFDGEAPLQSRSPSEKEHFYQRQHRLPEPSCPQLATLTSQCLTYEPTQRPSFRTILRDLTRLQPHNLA

| IC50 | Structure (SMILES) |
| --- | --- |
| 0.627 nM | [2H]C([2H])([2H])O[C@H](c1ccc2c(c(Nc3cc(NC(=O)C4CC4)ncc3C(=O)OC)nn2C([2H])([2H])[2H])c1OC)C(F)(F)F [Example 53A, Methyl (R)-6-(cyclopropanecarboxamido)-4-((4-methoxy-1-(methyl-d3)-5-(2,2,2-trifluoro-1-(methoxy-d3)ethyl)-1H-indazol-3-yl)amino)nicotinate] |
| 0.074 nM | COC(=O)c1cnc(NC(=O)C2CC2)cc1Nc1nn(C)c2ccc([C@H](OCOP(=O)(O)O)C(F)(F)F)c(OC)c12 [Example 170, Sodium (S)-(1-(3-((2-(cyclopropanecarboxamido)-5-(methoxycarbonyl)pyridin-4-yl)amino)-4-methoxy-1-methyl-1H-indazol-5-yl)-2,2,2-trifluoroethoxy)methyl phosphate] |
| 90.3 nM | COC(=O)c1cnc(NC(=O)C2CC2)cc1Nc1c2c(OC)c(C(C)C(F)(F)F)ccc2nn1C (centres unmarked) [Example 124, Methyl 6-(cyclopropanecarboxamido)-4-((4-methoxy-2-methyl-5-(1,1,1-trifluoropropan-2-yl)-2H-indazol-3-yl)amino)nicotinate] |
| > 298 nM | COC(=O)c1nnc(NC(=O)C2CC2)cc1Nc1nn(C)c2ccc(C(OC)C(F)(F)F)c(OC)c12 (centres unmarked) [Example 101, Methyl 6-(cyclopropanecarboxamido)-4-((4-methoxy-1-methyl-5-(2,2,2-trifluoro-1-methoxyethyl)-1H-indazol-3-yl)amino)pyridazine-3-carboxylate] |
| 1.79 nM | COC(=O)c1cnc(NC(=O)C2CC2)cc1Nc1nn(C)c2ccc(C#N)c(OC)c12 [Example 126, Methyl 4-((5-cyano-4-methoxy-1-methyl-1H-indazol-3-yl)amino)-6-(cyclopropanecarboxamido)nicotinate] |
| 0.308 nM | COC(=O)c1cnc(NC(=O)C2CC2)cc1Nc1nn(C2CC2)c2ccc(C(OC)C(F)(F)F)c(OC)c12 (centres unmarked) [Example 119, Methyl 6-(cyclopropanecarboxamido)-4-((1-cyclopropyl-4-methoxy-5-(2,2,2-trifluoro-1-methoxyethyl)-1H-indazol-3-yl)amino)nicotinate] |

More lines, now with the values behind:

| Structure (SMILES) | IC50 |
| --- | --- |
| COC(=O)c1cnc(NC(=O)C2CC2)cc1Nc1nccc2c1N(C)[C@@H](C)c1nn(C)nc1-2 [Example 109, Methyl (S)-6-(cyclopropanecarboxamido)-4-((2,4,5-trimethyl-4,5-dihydro-2H-[1,2,3]triazolo[4,5-c][1,7]naphthyridin-6-yl)amino)nicotinate] | 0.836 nM |
| CCC(O)c1cnc(NC(=O)C2CC2)cc1Nc1nn(C)c2ccc([C@H](OC)C(F)(F)F)c(OC)c12 (stereo partly drawn) [Example 143, N-(5-(1-hydroxypropyl)-4-((4-methoxy-1-methyl-5-((S)-2,2,2-trifluoro-1-methoxyethyl)-1H-indazol-3-yl)amino)pyridin-2-yl)cyclopropanecarboxamide] | 34.7 nM |
| COC(=O)c1c(Nc2nn(C)c3ccc(C(OC)C(F)(F)F)c(OC)c23)cc(NC(=O)C2CC2)nc1F (single isomer, unassigned) [Example 98B, Methyl (S*)-6-(cyclopropanecarboxamido)-2-fluoro-4-((4-methoxy-1-methyl-5-(2,2,2-trifluoro-1-methoxyethyl)-1H-indazol-3-yl)amino)nicotinate] | 3.88 nM |
| COC(=O)c1cnc(NC(=O)C2CC2)cc1Nc1ccn2ncc(C(OC)C(F)(F)F)c2c1OC (centres unmarked) [Example 131, Methyl 6-(cyclopropanecarboxamido)-4-((4-methoxy-3-(2,2,2-trifluoro-1-methoxyethyl)pyrazolo[1,5-a]pyridin-5-yl)amino)nicotinate] | 12.7 nM |

same assay, conditions: read-out: TYK2 JH2 Binding IC50; JH2 domain enzyme; 60 min at 25°C, then 4°C overnight

| Structure (SMILES) | IC50 |
| --- | --- |
| COC(=O)c1cnc(NC(=O)[C@@H]2C[C@@H]2F)cc1Nc1nn(C)c2ccc(C(O)C(F)(F)F)c(OC)c12 (single isomer, unassigned) [Example 122B, Methyl 6-((1S,2S)-2-fluorocyclopropane-1-carboxamido)-4-((4-methoxy-1-methyl-5-((R*)-2,2,2-trifluoro-1-hydroxyethyl)-1H-indazol-3-yl)amino) nicotinate] | 0.733 nM |
